Laboratory results: patent US20080132415A1, “Method For Increasing Maize Yields” (priority 2004, published 2008)
Where two headings read alike, the source gives them in different places. Marks after values point to notes of the source that are not given here.

Experiments:
[1] = system: corn hybrids Pioneer 33K81 and Pioneer 33P66; test: Field study of isoxadifen with postemergence corn herbicides (Example 1), both hybrids or hybrid not stated; assay type: in vivo
[2] = system: Golden Harvest hybrid corn; assay type: in vivo
Source text: The hybrid corn species Golden Harvest was used in the study.
On one or more of the herbicides were used in combination with the insecticide chlorpyrifos—841 g/ha and with or without isoxadifen—37 g/ha.
A CO2 backpack sprayer was used to apply the compounds at 187 L/ha at 247 kPa.

[3] = system: Pioneer 33K81 hybrid corn; test: Field study of isoxadifen with postemergence corn herbicides (Example 1), hybrid Pioneer 33K81; assay type: in vivo
Source text: Timing of the application of the compounds was at the V6 growth stage (i.e., when there were six visible collars of the corn). Additionally, methylated seed oil (MSO)+28% ureas and ammonium sulfate (UAN) were applied at a concentration of 1% v/v+2.5% v/v.

[4] = system: Pioneer 33P66 hybrid corn; conditions: applied at V6 growth stage at 1x field use rates, isoxadifen 37 g/ha where included
Experimental: The study was conducted in Bloomington, DeKalb and Urbana, Ill. to evaluate the crop response when isoxadifen was used with postemergence corn herbicides. Two hybrid corn species with different levels of tolerance were used in the study: Pioneer 33K81, a species sensitive to plant growth regulators (PGRs), isoxazole, amides and sulfonylureas (SUs); and Pioneer 33P66, a tolerant species. Plots were kept weed-free to eliminate any competition from weeds.
The following herbicides and their respective field use rates were used in the study:
rimsufuron—26 g/ha; nicosulfuron+rimsulfuron—39 g/ha; foramsulfuron—37 g/ha; diflufenzopyr+dicamba—294 g/ha; mesotrione—105 g/ha; and dicamba—560 g/ha. One or more of the herbicides were used with or without isoxadifen—37 g/ha. All herbicides were applied at the 1× labeled field use rates.
Timing of the application of the compounds was at the V6 growth stage (i.e., when there were six visible collars of the corn). Additionally, methylated seed oil (MSO)+28% […] (UAN) were applied at a concentration of 1% v/v+2.5% v/v.

[5] = herbicide in combination with chlorpyrifos 841 g/ha and isoxadifen 37 g/ha, seven days post application
[6] = herbicide in combination with chlorpyrifos 841 g/ha, without isoxadifen, seven days post application
[7] = herbicide in combination with chlorpyrifos, without isoxadifen
[8] = percentage of control, herbicide in combination with chlorpyrifos 841 g/ha and isoxadifen 37 g/ha
[9] = percentage of control, herbicide in combination with chlorpyrifos 841 g/ha, without isoxadifen

Row | SMILES | crop injury when tank-mixed with isoxadifen, compared with the same herbicide without isoxadifen ([1]; both hybrids, 7 days after treatment) | CORN INJURY Chlor + Isoxadifen ([2]; in vivo) | CORN INJURY Chlorpyrifos ([2]; in vivo) | CORN YIELD Chlor + Isoxadifen ([2]; in vivo) | CORN YIELD Chlorpyrifos ([2]; in vivo) | corn injury compared to the application of the same combination and isoxadifen ([2]; in vivo) | corn yield compared to the application of the same combination and isoxadifen ([2]; in vivo) | PERCENTAGE OF CORN INJURY Pioneer 33K81 ([3]; 7 days post application, applied at V6 growth stage at 1x field use rates, isoxadifen 37 g/ha where included) | CORN YIELD - PERCENTAGE OF CONTROL Pioneer 33K81 ([3]; percentage of control, applied at V6 growth stage at 1x field use rates, isoxadifen 37 g/ha where included) | PERCENTAGE OF CORN INJURY Pioneer 33P66 ([4]; 7 days post application) | CORN YIELD - PERCENTAGE OF CONTROL Pioneer 33P66 ([4]; percentage of control) | CORN INJURY Chlor + Isoxadifen [2, 5] | CORN INJURY Chlorpyrifos [2, 6] | corn injury compared to the application of the same combination and isoxadifen [2, 7] | corn yield compared to the application of the same combination and isoxadifen [2, 7] | CORN YIELD Chlor + Isoxadifen [2, 8] | CORN YIELD Chlorpyrifos [2, 9] | difference in adding isoxadifen ([1]; hybrid not stated, data not shown) | crop injury when tank-mixed with isoxadifen ([3]; P33K81 hybrid corn, addition of isoxadifen, data not shown)
1 | COc1c(Cl)ccc(Cl)c1C(=O)O [Dicamba, dicamba] | less crop injury | 37 * % | 65% | 86 * % | 75% | significantly more corn injury | significantly smaller corn yield | 25% | 81% | 36% | 89% |  |  |  |  |  |  |  | 
2 | COc1cc(OC)nc(NC(=O)NS(=O)(=O)c2cc(NC=O)ccc2C(=O)N(C)C)n1 [Foramsulfuron, foramsulfuron] |  |  |  |  |  |  |  |  |  |  |  | 37 * % | 47% | significantly more corn injury | significantly smaller corn yield | 92 * % | 82% |  | 
3 | CS(=O)(=O)c1ccc(C(=O)C2C(=O)CCCC2=O)c([N+](=O)[O-])c1 [Mesotrione, mesotrione] |  |  |  |  |  |  |  |  |  |  |  | 12 * % | 34% | significantly more corn injury | no significant difference | 97% | 97% | no significant difference | 
4 | CCS(=O)(=O)c1cccnc1S(=O)(=O)NC(=O)Nc1nc(OC)cc(OC)n1 [Rimsulfuron, rimsulfuron] |  |  |  |  |  |  |  |  |  |  |  | 45% | 37% | no significant difference | significantly smaller corn yield | 95 * % | 65% |  | less crop injury
